Legend:
Test in all cases: drug sensitivity score (DSS) from 5-point dose-response viability curve (DSS (area-under-curve based score)); higher = more sensitive (stronger growth inhibition or killing); extreme values may be limits of the assay
Details in all cases: exposure time: 72 h; concentration range: 5 concentrations over 10,000-fold range
HOSE1C = tested on: HOSE1C
In short: (§1)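 Each cell line and drug received a drug sensitivity score from Breeze software, where higher means more sensitive. Zero stands for no response. Scores came from CellTiter-Glo viability readings of ovarian cancer and normal ovarian cells, 1,500 per well in 384-well plates, after 3 days at 37°C, 5% CO2 with drugs at five concentrations over a 10,000-fold range.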

OVCAR8 = tested on: OVCAR8
In short: as §1

CAOV3 = tested on: CAOV3
In short: as §1

COV318 = tested on: COV318
In short: as §1

OVCAR4 = tested on: OVCAR4
In short: as §1

Kuramochi = tested on: Kuramochi
In short: as §1

COV362 = tested on: COV362
In short: as §1

JHOS2 = tested on: JHOS2
In short: as §1

OVCAR5 = tested on: OVCAR5
In short: as §1

HOSE2C = tested on: HOSE2C
In short: as §1

OV90 = tested on: OV90
In short: as §1

Ovsaho = tested on: Ovsaho
In short: as §1

In the case of `Cc1[nH]nc(C(F)(F)F)c1Cc1sc2c(c1C(=O)N1C[C@](C)(O)CO1)c(=O)n(C)c(=O)n2C(C)C` [AZD3965], the drug sensitivity score (HOSE1C) was 0, the drug sensitivity score (OVCAR8) was 0 and the drug sensitivity score (CAOV3) was 0. The drug sensitivity score (COV318) was 0, the drug sensitivity score (OVCAR4) was 0 and the drug sensitivity score (Kuramochi) was 0. It also gave a drug sensitivity score (COV362) of 0, a drug sensitivity score (JHOS2) of 0 and a drug sensitivity score (OVCAR5) of 0. It also gave a drug sensitivity score (HOSE2C) of 0, a drug sensitivity score (OV90) of 4.2 and a drug sensitivity score (Ovsaho) of 0.8.

Molecule `COc1cc(CCc2cc(NC(=O)c3ccc(N4CC(C)NC(C)C4)cc3)n[nH]2)cc(OC)c1` (configuration not stated) [AZD4547] has a drug sensitivity score (HOSE1C) of 0.8, a drug sensitivity score (OVCAR8) of 0 and a drug sensitivity score (CAOV3) of 0. For the same molecule, the drug sensitivity score (COV318) was 0, the drug sensitivity score (OVCAR4) was 0 and the drug sensitivity score (Kuramochi) was 0. The drug sensitivity score (COV362) was 0, the drug sensitivity score (JHOS2) was 0 and the drug sensitivity score (OVCAR5) was 0. The drug sensitivity score (HOSE2C) was 5.8, the drug sensitivity score (OV90) was 0 and the drug sensitivity score (Ovsaho) was 0.

Work on `CN(C)C(=O)c1ccc(S(=O)(=O)c2ccc(NC(=O)[C@@](C)(O)C(F)(F)F)c(Cl)c2)cc1` [AZD7545] yielded a drug sensitivity score (HOSE1C) of 0, a drug sensitivity score (OVCAR8) of 2.2 and a drug sensitivity score (CAOV3) of 1.1. It also gave a drug sensitivity score (COV318) of 0, a drug sensitivity score (OVCAR4) of 0 and a drug sensitivity score (Kuramochi) of 0. The drug sensitivity score (COV362) was 0, the drug sensitivity score (JHOS2) was 0 and the drug sensitivity score (OVCAR5) was 0. The drug sensitivity score (HOSE2C) was 0.4, the drug sensitivity score (OV90) was 0 and the drug sensitivity score (Ovsaho) was 0.

`NC(=O)Nc1cc(-c2cccc(F)c2)sc1C(=O)N[C@H]1CCCNC1` [AZD7762] was tested, and the drug sensitivity score (HOSE1C) was 7.4, the drug sensitivity score (OVCAR8) was 5.2 and the drug sensitivity score (CAOV3) was 6.1. For the same molecule, the drug sensitivity score (COV318) was 5, the drug sensitivity score (OVCAR4) was 7 and the drug sensitivity score (Kuramochi) was 4.2. It also gave a drug sensitivity score (COV362) of 7, a drug sensitivity score (JHOS2) of 1.9 and a drug sensitivity score (OVCAR5) of 6.6. It also gave a drug sensitivity score (HOSE2C) of 7.8, a drug sensitivity score (OV90) of 6.4 and a drug sensitivity score (Ovsaho) of 4.

`COc1ccc(-c2ccc3c(N4CCOC[C@@H]4C)nc(N4CCOC[C@@H]4C)nc3n2)cc1CO` [AZD8055] was tested, and the drug sensitivity score (HOSE1C) was 20.7, the drug sensitivity score (OVCAR8) was 17.2 and the drug sensitivity score (CAOV3) was 15.6. It also gave a drug sensitivity score (COV318) of 13.6, a drug sensitivity score (OVCAR4) of 17.5 and a drug sensitivity score (Kuramochi) of 15.6. For the same molecule, the drug sensitivity score (COV362) was 6.4, the drug sensitivity score (JHOS2) was 14.4 and the drug sensitivity score (OVCAR5) was 18.4. It also gave a drug sensitivity score (HOSE2C) of 16.2, a drug sensitivity score (OV90) of 20.8 and a drug sensitivity score (Ovsaho) of 16.9.

For `N#Cc1ccc2[nH]c(O)c(-c3ccc(CN4CCOCC4)cn3)c2c1` [AZD-1080], the drug sensitivity score (HOSE1C) was 0, the drug sensitivity score (OVCAR8) was 0 and the drug sensitivity score (CAOV3) was 0.9. For the same molecule, the drug sensitivity score (COV318) was 0, the drug sensitivity score (OVCAR4) was 0 and the drug sensitivity score (Kuramochi) was 0. The drug sensitivity score (COV362) was 0, the drug sensitivity score (JHOS2) was 0 and the drug sensitivity score (OVCAR5) was 0. For the same molecule, the drug sensitivity score (HOSE2C) was 0.3, the drug sensitivity score (OV90) was 0 and the drug sensitivity score (Ovsaho) was 0.

With `Cc1ncc(-c2ccnc(Nc3ccc(S(C)(=O)=O)cc3)n2)n1C(C)C` [AZD-5438] the drug sensitivity score (HOSE1C) was 7, the drug sensitivity score (OVCAR8) was 8.4 and the drug sensitivity score (CAOV3) was 4.4. The drug sensitivity score (COV318) was 2.9, the drug sensitivity score (OVCAR4) was 2.9 and the drug sensitivity score (Kuramochi) was 6.8. It also gave a drug sensitivity score (COV362) of 2.8, a drug sensitivity score (JHOS2) of 7.9 and a drug sensitivity score (OVCAR5) of 9.2. The drug sensitivity score (HOSE2C) was 2, the drug sensitivity score (OV90) was 4.4 and the drug sensitivity score (Ovsaho) was 8.1.

For `Cc1cc([C@@H](C)Nc2ccccc2C(=O)O)c2nc(N3CCOCC3)cc(=O)n2c1` [AZD-6482], the drug sensitivity score (HOSE1C) was 0.3, the drug sensitivity score (OVCAR8) was 0.7 and the drug sensitivity score (CAOV3) was 2.3. It also gave a drug sensitivity score (COV318) of 0.1, a drug sensitivity score (OVCAR4) of 1.6 and a drug sensitivity score (Kuramochi) of 6. The drug sensitivity score (COV362) was 0, the drug sensitivity score (JHOS2) was 0 and the drug sensitivity score (OVCAR5) was 0.1. For the same molecule, the drug sensitivity score (HOSE2C) was 1.2, the drug sensitivity score (OV90) was 0 and the drug sensitivity score (Ovsaho) was 7.6.

`C[C@@H](Nc1cc(F)cc(F)c1)c1cc(C(=O)N(C)C)cc2c(=O)cc(N3CCOCC3)oc12` [AZD-8186] was tested, and the drug sensitivity score (HOSE1C) was 0.1, the drug sensitivity score (OVCAR8) was 0.6 and the drug sensitivity score (CAOV3) was 2.1. The drug sensitivity score (COV318) was 0.7, the drug sensitivity score (OVCAR4) was 3.1 and the drug sensitivity score (Kuramochi) was 7.1. It also gave a drug sensitivity score (COV362) of 0, a drug sensitivity score (JHOS2) of 0.8 and a drug sensitivity score (OVCAR5) of 1.9. The drug sensitivity score (HOSE2C) was 0.3, the drug sensitivity score (OV90) was 0.1 and the drug sensitivity score (Ovsaho) was 6.3.

`CCN1CCN(Cc2ccc(Nc3ncc(F)c(-c4cc(F)c5nc(C)n(C(C)C)c5c4)n3)nc2)CC1` [Abemaciclib] showed a drug sensitivity score (HOSE1C) of 1.6, a drug sensitivity score (OVCAR8) of 0.7 and a drug sensitivity score (CAOV3) of 0.4. It also gave a drug sensitivity score (COV318) of 1, a drug sensitivity score (OVCAR4) of 0 and a drug sensitivity score (Kuramochi) of 2.5. It also gave a drug sensitivity score (COV362) of 1.5, a drug sensitivity score (JHOS2) of 5.5 and a drug sensitivity score (OVCAR5) of 7.4. The drug sensitivity score (HOSE2C) was 0.7, the drug sensitivity score (OV90) was 1.5 and the drug sensitivity score (Ovsaho) was 3.2.

`CN(C)Cc1c(C(=O)NCCOc2ccc(C(=O)NO)cc2)oc2ccccc12` [Abexinostat] was tested, and the drug sensitivity score (HOSE1C) was 24.1, the drug sensitivity score (OVCAR8) was 19.9 and the drug sensitivity score (CAOV3) was 13.7. It also gave a drug sensitivity score (COV318) of 10.1, a drug sensitivity score (OVCAR4) of 10.5 and a drug sensitivity score (Kuramochi) of 14.6. It also gave a drug sensitivity score (COV362) of 5.6, a drug sensitivity score (JHOS2) of 11.8 and a drug sensitivity score (OVCAR5) of 21.7. The drug sensitivity score (HOSE2C) was 20, the drug sensitivity score (OV90) was 16.5 and the drug sensitivity score (Ovsaho) was 10.

With `C[C@]12CC[C@H](O)CC1=CC[C@@H]1[C@@H]2CC[C@]2(C)C(c3cccnc3)=CC[C@@H]12` [Abiraterone] the drug sensitivity score (HOSE1C) was 0.1, the drug sensitivity score (OVCAR8) was 0 and the drug sensitivity score (CAOV3) was 0. The drug sensitivity score (COV318) was 0, the drug sensitivity score (OVCAR4) was 0.3 and the drug sensitivity score (Kuramochi) was 0. For the same molecule, the drug sensitivity score (COV362) was 0, the drug sensitivity score (JHOS2) was 0 and the drug sensitivity score (OVCAR5) was 0. It also gave a drug sensitivity score (HOSE2C) of 0, a drug sensitivity score (OV90) of 0.5 and a drug sensitivity score (Ovsaho) of 0.

With `CC#CC(=O)N1CCC[C@H]1c1nc(-c2ccc(C(=O)Nc3ccccn3)cc2)c2c(N)nccn12` [Acalabrutinib] the drug sensitivity score (HOSE1C) was 0, the drug sensitivity score (OVCAR8) was 0 and the drug sensitivity score (CAOV3) was 0. For the same molecule, the drug sensitivity score (COV318) was 3.5, the drug sensitivity score (OVCAR4) was 2.1 and the drug sensitivity score (Kuramochi) was 6.2. For the same molecule, the drug sensitivity score (COV362) was 0.3, the drug sensitivity score (JHOS2) was 0.8 and the drug sensitivity score (OVCAR5) was 0.2. It also gave a drug sensitivity score (HOSE2C) of 0, a drug sensitivity score (OV90) of 0 and a drug sensitivity score (Ovsaho) of 1.

`COc1cc(C)c(/C=C/C(C)=C/C=C/C(C)=C/C(=O)O)c(C)c1C` [Acitretin] was tested, and the drug sensitivity score (HOSE1C) was 0.1, the drug sensitivity score (OVCAR8) was 0 and the drug sensitivity score (CAOV3) was 0. The drug sensitivity score (COV318) was 0, the drug sensitivity score (OVCAR4) was 0 and the drug sensitivity score (Kuramochi) was 0. The drug sensitivity score (COV362) was 0, the drug sensitivity score (JHOS2) was 1.3 and the drug sensitivity score (OVCAR5) was 0. It also gave a drug sensitivity score (HOSE2C) of 0, a drug sensitivity score (OV90) of 0.2 and a drug sensitivity score (Ovsaho) of 0.

With `CN(C)C/C=C/C(=O)Nc1cc2c(Nc3ccc(F)c(Cl)c3)ncnc2cc1O[C@H]1CCOC1` [Afatinib] the drug sensitivity score (HOSE1C) was 0, the drug sensitivity score (OVCAR8) was 0.3 and the drug sensitivity score (CAOV3) was 8.2. It also gave a drug sensitivity score (COV318) of 0, a drug sensitivity score (OVCAR4) of 1 and a drug sensitivity score (Kuramochi) of 2.3. For the same molecule, the drug sensitivity score (COV362) was 1.3, the drug sensitivity score (JHOS2) was 2.7 and the drug sensitivity score (OVCAR5) was 3.4. The drug sensitivity score (HOSE2C) was 0, the drug sensitivity score (OV90) was 0 and the drug sensitivity score (Ovsaho) was 3.2.

For `Cn1ncc(Cl)c1-c1cc(C(=O)N[C@H](CN)Cc2cccc(F)c2)sc1Cl` [Afuresertib], the drug sensitivity score (HOSE1C) was 2.9, the drug sensitivity score (OVCAR8) was 0.5 and the drug sensitivity score (CAOV3) was 0.8. The drug sensitivity score (COV318) was 1.8, the drug sensitivity score (OVCAR4) was 0.5 and the drug sensitivity score (Kuramochi) was 4. The drug sensitivity score (COV362) was 0, the drug sensitivity score (JHOS2) was 0 and the drug sensitivity score (OVCAR5) was 1.2. It also gave a drug sensitivity score (HOSE2C) of 2.8, a drug sensitivity score (OV90) of 0.9 and a drug sensitivity score (Ovsaho) of 1.5.

Reference: the supplement of paper PMC11616607
